In patent US10800788B2, “4-(aryl)-N-(3-alkoxyfuro[2,3-b]pyrazin-2-yl)-piperazine-1-carboxamide derivative and antiproliferative effect thereof” (Dongguk University Industry-Academic Cooperation Foundation, priority 2016, dated 2020) one finds IC50 data, which are given here for eleven molecules.

Experiment [1] deals with MDA-MB-231 (breast cancer) cell line. The experiment can be described thus: Cell growth inhibition experiment (SRB), MDA-MB-231. It is filed as cell-based, human. Particulars: Homo sapiens, MDA-MB-231, 96 h, 96 hours incubation. The method, boiled down: (§1)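 Cells in DMEM with 10% FBS were seeded at 2 to 3×10^3 cells/well, dosed the next day and incubated 96 hours at 37° C, 5% CO2. After TCA fixation and sulforhodamine B staining, OD530 was converted to viable cell number with a per-line standard curve. % survival is test over control; triplicate runs.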

A further experiment concerns HUVEC. In words: Cell growth inhibition experiment (SRB), HUVEC. It is filed as cell-based, human. Particulars: Homo sapiens, HUVEC, 96 h, 96 hours incubation, read-out: IC50 (μM) […]. In outline:
(§2)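 Growth inhibition was assessed by sulforhodamine B staining after a 96 hour compound treatment of cells seeded at 2 to 3×10^3 per well, each compound tested three times.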

The next experiment concerns HT29. In words: Cell growth inhibition experiment (SRB), HT29. It is filed as cell-based, human. Particulars: Homo sapiens, HT-29, 96 h, 96 hours incubation, read-out: IC50 (μM) for cancer cell line HT29. The method, boiled down: as §2
A further experiment relates to A549. In words: Cell growth inhibition experiment (SRB), A549. It is filed as cell-based. Particulars: Homo sapiens, A549, 96 h, 96 hours incubation, read-out: IC50 (μM) for cancer cell line A549. The method, boiled down: as §2
In experiment [2] the test system is HN31 (head and neck cancer) cell line. In words: Cell growth inhibition experiment (SRB), HN31. Type of experiment: cell-based, human. To be noted: Homo sapiens, 96 h, 96 hours incubation. In outline:
as §1

Experiment [3] concerns PANC-1 (pancreatic cancer) cell line. In words: Cell growth inhibition experiment (SRB), PANC-1. It is filed as cell-based. To be noted: Homo sapiens, PANC-1, 96 h, 96 hours incubation. The method, boiled down: as §1
The next experiment relates to HEK293. The experiment can be described thus: Cell growth inhibition experiment (SRB), HEK293. Type of experiment: cell-based, human. To be noted: Homo sapiens, HEK293, 96 h, 96 hours incubation, read-out: IC50 (μM) for cancer cell line HEK293. In outline:
as §2

For the next experiment, the system named is SK-OV-3. The experiment can be described thus: Cell growth inhibition experiment (SRB), SK-OV-3. Type of experiment: cell-based, human. To be noted: Homo sapiens, SK-OV-3, 96 h, 96 hours incubation, read-out: IC50 (μM) for cancer cell line SK-OV-3. The method, boiled down:
as §2

In experiment [4] the test system is UMRC2 (kidney cancer) cell line. The experiment can be described thus: Cell growth inhibition experiment (SRB), UMRC2. Type of experiment: cell-based, human. Particulars: Homo sapiens, UMRC2, 96 h, 96 hours incubation. The method, boiled down:
as §1

Broadly, the IC50 is the concentration that gives 50% inhibition. As to `COc1nc2occc2nc1NC(=O)N1CCN(c2cc(C)cc(F)c2)CC1` [Example 6, 4-(3-Fluoro-5-methylphenyl)-N-(3-methoxyfuro[2,3-b]pyrazin-2-yl)piperazine-1-carboxamide], the IC50 in experiment [1] is 1.13 µM; in the experiment on HUVEC, less than 2.5 µM; in the experiment on HT29 it was less than 2.5 µM; with A549 it was 1.78 µM; in experiment [2] it was 1.98 µM; in [3] it was 0.98 µM. Also, the values for the IC50 (with HEK293; with SK-OV-3; in experiment [4]) were 1.83 µM, less than 2.5 µM and 1.21 µM, respectively.

In the case of `CCOc1nc2occc2nc1NC(=O)N1CCN(c2cc(OC)cc(OCCN(C)C)c2)CC1` [Example 14, 4-(3-(2-(Dimethylamino)ethoxy)-5-methoxyphenyl)-N-(3-ethoxyfuro[2,3-b]pyrazin-2-yl)piperazine-1-carboxamide], the IC50 in [1] is 0.34 µM; in the experiment on HUVEC, less than 2.5 µM; in the experiment on HT29, less than 2.5 µM; with A549, 1.85 µM; in [2], 0.65 µM; in experiment [3], 1.23 µM. For the same molecule, the half-maximal inhibitory concentration (IC50) in the experiment with HEK293 is less than 2.5 µM; in the experiment on SK-OV-3 it was less than 2.5 µM; in [4], 0.68 µM.

`CCOc1nc2occc2nc1NC(=O)N1CCN(c2cc(OC)cc(OC)c2)CC1` [Example 11, 4-(3,5-Dimethoxyphenyl)-N-(3-ethoxyfuro[2,3-b]pyrazin-2-yl)piperazine-1-carboxamide]: the half-maximal inhibitory concentration (IC50) in [1] worked out at 0.07 µM; with HUVEC it was 0.07 µM; with HT29 it was 1.31 µM; in the experiment with A549, 1.51 µM; in [2], 0.41 µM; in experiment [3] it was 0.24 µM. Further, the IC50 was determined as 0.65 µM in the experiment with HEK293, 1.27 µM with SK-OV-3 and 0.07 µM in experiment [4].

`COc1cc(F)cc(N2CCN(C(=O)Nc3nc4ccoc4nc3OC)CC2)c1` [Example 3, 4-(3-Fluoro-5-methoxyphenyl)-N-(3-methoxyfuro[2,3-b]pyrazin-2-yl)piperazine-1-carboxamide]: the IC50 in experiment [1] was 0.24 µM; with HUVEC, less than 2.5 µM; with HT29, 1.53 µM; in the experiment on A549, 2.11 µM; in experiment [2] it was 0.71 µM; in experiment [3], 0.56 µM. In addition, the 50% inhibitory concentration (IC50) with HEK293 was less than 2.5 µM; in the experiment with SK-OV-3, 0.85 µM; in experiment [4], 0.06 µM.

Turning to `COc1nc2oc(Cl)cc2nc1NC(=O)N1CCN(c2cc(C(F)(F)F)cc(C(F)(F)F)c2)CC1` [Example 49, 4-(3,5-Bis(trifluoromethyl)phenyl)-N-(6-chloro-3-methoxy-furo[2,3-b]pyrazin-2-yl)piperazine-1-carboxamide], the IC50 in experiment [1] was 0.32 µM; with HUVEC it was less than 2.5 µM; in the experiment on HT29, less than 2.5 µM; with A549 it was less than 2.5 µM; in [2] it was 1.17 µM; in experiment [3], 1.68 µM. Moreover, the half-maximal inhibitory concentration (IC50) in the experiment with HEK293 was less than 2.5 µM; in the experiment on SK-OV-3 it was less than 2.5 µM; in experiment [4], 1.03 µM.

`CCOc1nc2occc2nc1NC(=O)N1CCN(c2cc(C(F)(F)F)cc(C(F)(F)F)c2)CC1` [Example 19, 4-(3,5-Bis(trifluoromethyl)phenyl)-N-(3-ethoxyfuro[2,3-b]pyrazin-2-yl)piperazine-1-carboxamide]: the IC50 in [1] was determined as 0.34 µM; in the experiment with HUVEC, 0.68 µM; in the experiment with HT29, 0.71 µM; in the experiment on A549, 0.44 µM; in experiment [2], 0.36 µM; in experiment [3], 1.23 µM. Moreover, the half-maximal inhibitory concentration (IC50) was 1.23 µM with HEK293, less than 2.5 µM in the experiment on SK-OV-3 and 0.68 µM in [4].

On to `COc1nc2oc(C)cc2nc1NC(=O)N1CCN(c2cc(F)cc(F)c2)CC1` [Example 27, 4-(3,5-Difluorophenyl)-N-(3-methoxy-6-methylfuro[2,3-b]pyrazin-2-yl)piperazine-1-carboxamide], for which the IC50 is 0.56 µM in [1]; less than 2.5 µM in the experiment with HUVEC; less than 2.5 µM with HT29; less than 2.5 µM with A549; less than 2.5 µM in experiment [2]; less than 2.5 µM in experiment [3]. Moreover, the IC50 was less than 2.5 µM in the experiment on HEK293, less than 2.5 µM with SK-OV-3 and 1.13 µM in experiment [4].

Consider `CCOc1nc2occc2nc1NC(=O)N1CCN(c2cc(F)cc(F)c2)CC1` [Example 17, 4-(3,5-Difluorophenyl)-N-(3-ethoxyfuro[2,3-b]pyrazin-2-yl)piperazine-1-carboxamide], for which the IC50 in experiment [1] was 0.24 µM; with HUVEC, less than 2.5 µM; in the experiment with HT29 it was less than 2.5 µM; with A549, less than 2.5 µM; in experiment [2] it was less than 2.5 µM; in [3] it was less than 2.5 µM. In addition, the concentration for half-maximal inhibition (IC50) in the experiment on HEK293 is less than 2.5 µM; in the experiment on SK-OV-3 it was less than 2.5 µM; in [4] it was 1.65 µM.

Turning to `COc1nc2oc(Cl)cc2nc1NC(=O)N1CCN(c2cc(C)cc(F)c2)CC1` [Example 46, N-(6-Chloro-3-methoxyfuro[2,3-b]pyrazin-2-yl)-4-(3-fluoro-5-methylphenyl)piperazine-1-carboxamide], the IC50 in [1] is 1.68 µM; with HUVEC, less than 2.5 µM; in the experiment with HT29, less than 2.5 µM; in the experiment with A549, less than 2.5 µM; in experiment [2], 1.83 µM; in [3], 1.94 µM. For the same molecule, the IC50 is less than 2.5 µM in the experiment on HEK293, less than 2.5 µM in the experiment with SK-OV-3 and 1.35 µM in experiment [4].

As to `CCOc1nc2oc(C)cc2nc1NC(=O)N1CCN(c2cc(F)cc(C(F)(F)F)c2)CC1` [Example 38, N-(3-Ethoxy-6-methylfuro[2,3-b]pyrazin-2-yl)-4-(3-fluoro-5-(trifluoromethyl)phenyl)piperazine-1-carboxamide], the IC50 (in experiment [1]; in the experiment on HUVEC; in the experiment with HT29; in the experiment on A549; in experiment [2]; in experiment [3]) was less than 2.5 µM each time. For the same molecule, the half-maximal inhibitory concentration (IC50) (in the experiment on HEK293; in the experiment on SK-OV-3; in experiment [4]) was less than 2.5 µM throughout.

Take `COc1nc2oc(Cl)cc2nc1NC(=O)N1CCN(c2cccc(OC(F)(F)F)c2)CC1` [Example 50, N-(6-Chloro-3-methoxy-furo[2,3-b]pyrazin-2-yl)-4-(3-(trifluoromethoxy)phenyl)piperazine-1-carboxamide]: the 50% inhibitory concentration (IC50) (in [1]; in the experiment with HUVEC; with HT29; with A549; in experiment [2]; in [3]) was less than 2.5 µM throughout. Also, the concentration for half-maximal inhibition (IC50) (with HEK293; in the experiment on SK-OV-3; in experiment [4]) was less than 2.5 µM each time.
